Experimental data: publication PMC4268426 (Contraception, 2014)
Entries after “also recorded” stand apart in the source; their conditions may differ. Like-named read-outs stand apart in the source and are kept apart here.

Assays:
[1] = clinical; settings: female, human, in vivo, po
[2] = pharmacokinetics reported as unaffected; cited from earlier work
[3] = human, in vivo

C#C[C@]1(O)CC[C@H]2[C@@H]3CCC4=CC(=O)CC[C@@H]4[C@H]3CC[C@@]21C [norethindrone]
Tmax [1]: 1.32 h
Vd/F [1]: 313 L
AUC(0-inf) ([1]; 0.35 mg): 33.8 ng·h/mL
AUC(0-t) ([1]; 0.35 mg): 16.7 ng·h/mL
Tmax ([1]; 0.35 mg): 1.86 h
Vd/F ([1]; 0.35 mg): 564 L
decrease in AUC with obesity (trend) [2]: ~ 20%
decrease in Cmax with obesity (trend) [2]: ~ 20%
adverse events (either group (control and treatment)): no reports of adverse events
concentration at 24 h (female, human, in vivo, po, 0.35 mg): 0.27 ng/mL
change in half-life (treatment group compared to control group): unaltered; also recorded: no alteration; also recorded: no change
increase in AUC0-24 ([3]; female): 50%
increase in AUC0-∞ ([3]; female): 35%
Cmax ([3]; female, po, 0.35 mg): 2.09 (1.49-3.06) ng/mL
CL/F ([3]; po): 7.59 (6.22-10.00) L/hr
CL/F ([3]; po, 0.35 mg): 10.35 (8.55-12.38) L/hr
